Experimental data taken from the supplement of paper PMC3493320.
pIC50: −log10 of the molar value.

System: NCI-H295R
Assay: IC50 (antiproliferative, ATP content)
Details: 48 h
Summary of the method: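 Adrenocortical carcinoma cells were plated at 1500 per well in 1536-well plates in serum-free DMEM with ITS supplement, left overnight, then given library compounds by pin transfer at 8 final concentrations spanning 0.6 nM to 46 µM and held 48 h at 37 °C, 5% CO2. ATP was measured as CellTiter-Glo luminescence after 20 min at room temperature and scaled between vehicle and positive-control wells. A four-parameter logistic model was fitted to each series. The IC50 was taken from these fits, and compounds without a concentration response were recorded as above the top dose.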

| Structure (SMILES) | pIC50 |
| --- | --- |
| CCC(COC(=O)c1cc(OC)c(OC)c(OC)c1)(c1ccccc1)N(C)C.O=C(O)/C=C\C(=O)O (stereo unspecified) | < 4.34 |
| C[C@]41/C=C\C(=O)\C=C4\C(=C)C[C@H]2[C@@H]3CCC(=O)[C@@]3(C)CC[C@H]12 | < 4.34 |
| CCCc1nc(C)c2c(=O)nc(-c3cc(S(=O)(=O)N4CCN(CC)CC4)ccc3OCC)[nH]n12.O=C(O)CC(O)(CC(=O)O)C(=O)O | < 4.34 |
| Cc1c(Cl)c(=O)oc2cc(OP(=O)(OCCCl)OCCCl)ccc12 | < 4.34 |
| CN1CCN(C(=O)C2CCCCC2)CC1 | < 4.34 |
| CC(=O)Nc1ncc([N+](=O)[O-])s1 | < 4.34 |
| Cc1ncsc1CCCl | < 4.34 |
| N=C1NCCC(C2NC(=O)/C(=C/NC(N)=O)NC(=O)C(CNC(=O)CC(N)CCCN)NC(=O)C(CO)NC(=O)C(N)CNC2=O)N1.O=S(=O)(O)O (stereo unspecified) | < 4.34 |
| O=C1C[C@@H]2OCC=C3CN4CC[C@]56c7ccccc7N1[C@H]5[C@H]2[C@H]3C[C@H]46 | < 4.34 |
| CC[N+](C)(C)Cc1ccccc1Br.Cc1ccc(S(=O)(=O)[O-])cc1 | < 4.34 |
| O=C1Nc2ccc(Cl)cc2C(c2ccccc2)=NC1O (stereo unspecified) | < 4.34 |
| Cc1cccc(C(C)c2c[nH]cn2)c1C (stereo unspecified) | < 4.34 |
| CCOc1ccc2c3c1O[C@H]1[C@@H](O)C=C[C@H]4[C@@H](C2)N(C)CC[C@@]341 | < 4.34 |
| C#C[C@]1(O)CC[C@H]2[C@@H]3CCC4=CC(=O)CC[C@@H]4[C@H]3C(=C)C[C@@]21CC | < 4.34 |
| NCCCC[C@H](N)C(=O)O | < 4.34 |
| O[C@@H]3C\C4=C\C[C@@H]1[C@H](CC[C@]2(C)[C@@H](O)CC[C@@H]12)[C@@]4(C)CC3 | < 4.34 |

| Structure (SMILES) | pIC50 |
| --- | --- |
| O[C@H]1[C@@H]([C@H](O)CO)O[C@H]2[C@@H]1O[C@H]([C@@](Cl)(Cl)Cl)O2 | < 4.34 |
| O=NN(CCCl)C(=O)NCCCl | < 4.34 |
| O=C1CN=C(c2ccccc2)c2cc([N+](=O)[O-])ccc2N1 | < 4.34 |
| C=CC[N@@+]1(C)CC[C@]23c4c5ccc(O)c4O[C@H]2C(=O)CC[C@@]3(O)[C@H]1C5.[I-] | < 4.34 |
| C[C@H](CCC(=O)[O-])[C@H]1CC[C@H]2[C@@H]3CC[C@@H]4C[C@H](O)CC[C@]4(C)[C@H]3C[C@H](O)[C@]12C.[Na+] | < 4.34 |
| O=CC=O | < 4.34 |
| N[C@@H](C\C1=C\N=C/N1)C(O)=O.Cl | < 4.34 |
| CC[C@H]1OC(=O)[C@H](C)[C@@H](O[C@H]2C[C@@](C)(OC)[C@@H](O)[C@H](C)O2)[C@H](C)[C@@H](O[C@@H]2O[C@H](C)C[C@H](N(C)C)[C@H]2O)[C@](C)(O)C[C@@H](C)CN(C)[C@H](C)[C@@H](O)[C@]1(C)O | < 4.34 |
| Cc1ncc(CO)c(CN)c1O.Cl.Cl | < 4.34 |
| CCN(CC)CCOC[C@H]1O[C@@H](O)[C@H](OCCN(CC)CC)[C@@H](O)[C@@H]1O | < 4.34 |
| CC[N+](CC)(CC)CCOc1cccc(OCC[N+](CC)(CC)CC)c1OCC[N+](CC)(CC)CC.[I-].[I-].[I-] | < 4.34 |
| COc1c2occc2c(OC)c2c(=O)cc(C)oc12 | < 4.34 |
| N[C@H](C)[C@@H](O)[C@]1=CC=CC=C1.Cl | < 4.34 |
| C#C[C@]1(O)CC[C@H]2[C@@H]3CCC4=CC(=O)CC[C@@H]4[C@H]3CC[C@@]21CC | < 4.34 |
| CCCCNCC(O)c1ccc(O)cc1 (stereo unspecified) | < 4.34 |
| NC(=O)c1cnccn1 | < 4.34 |

The remaining lines, values ahead:

| pIC50 | Structure (SMILES) |
| --- | --- |
| < 4.34 | CC1(C)Oc2ccc(C#N)cc2[C@@H](N2CCCC2=O)[C@@H]1O |
| < 4.34 | CC(C)(C(=O)c1cccnc1)c1cccnc1 |
| < 4.34 | CC(C)(C#N)c1cc(Cn2cncn2)cc(C(C)(C)C#N)c1 |
| < 4.34 | O=C([O-])CCC1=C(C)C/3=N\C1=C/C2=C(CCC([O-])=O)C(C)=C(/C=C(C(C=C)=C4C)\N=C4/C=C(C(C=C)=C5C)\N\C5=C3)N2.[Na+].[Na+] |
| < 4.34 | CC(C)(C)C(=O)C(Oc1ccc(Cl)cc1)n1ccnc1 (stereo unspecified) |
| < 4.34 | COC(=O)[C@H](Cc1ccccc1)NC(=O)[C@@H](N)CC(=O)O |
| < 4.34 | Cl.Cl.NC(=O)C1(N2CCCCC2)CCN(CCCC(=O)c2ccc(F)cc2)CC1 |
| < 4.34 | CN(C)[C@@H]1C(O)=C(C(N)=O)C(=O)[C@@]2(O)C(O)=C3C(=O)c4c(O)cccc4[C@@](C)(O)[C@H]3[C@H](O)[C@@H]12.O.O |
| < 4.34 | COc1ccc(C2C(=O)c3ccccc3C2=O)cc1 |
| < 4.34 | O=C(O)c1cccc(-c2noc(-c3ccccc3F)n2)c1 |
| < 4.34 | COc1cc(C(=O)NCc2ccc(OCCN(C)C)cc2)cc(OC)c1OC.Cl |
| < 4.34 | CCCCC1C(=O)N(c2ccccc2)N(c2ccc(O)cc2)C1=O (stereo unspecified) |
| < 4.34 | CCC(=O)O.CCC(=O)O.O=C(Nc1cccc(C2=NCCN2)c1)Nc1cccc(C2=NCCN2)c1 |
| < 4.34 | Cc1cc2c(s1)Nc1ccccc1N=C2N1CCN(C)CC1 |
| < 4.34 | O=C1c2ccccc2-c2n[nH]c3cccc1c23 |
| < 4.34 | CCN(CC)CCOc1ccccc1C(=O)CCc1ccccc1 |
| < 4.34 | O=C(NNCS(=O)(=O)[O-])c1ccncc1.[Na+] |
| < 4.34 | CC1COc2c(N3CCN(C)CC3)c(F)cc3c(=O)c(C(=O)O)cn1c23 (stereo unspecified) |
| < 4.34 | CN(Cc1ccccc1)Cc1ccccc1 |
| < 4.34 | CC(C)NCC(O)c1ccc(NS(C)(=O)=O)cc1.Cl (stereo unspecified) |

| pIC50 | Structure (SMILES) |
| --- | --- |
| < 4.34 | CCOc1ccccc1OCCN[C@H](C)Cc1ccc(OC)c(S(N)(=O)=O)c1.Cl |
| < 4.34 | CCCC(=O)O[C@]1(C(=O)CCl)[C@@H](C)C[C@H]2[C@@H]3CCC4=CC(=O)C=C[C@]4(C)[C@@]3(F)C(=O)C[C@@]21C |
| < 4.34 | C=CCOc1ccc(CC(=O)O)cc1Cl |
| < 4.34 | O=C(NC(Cc1cc(=O)[nH]c2ccccc12)C(=O)O)c1ccc(Cl)cc1 (stereo unspecified) |
| < 4.34 | CS(=O)(=O)CCNCc1ccc(-c2ccc3ncnc(Nc4ccc(OCc5cccc(F)c5)c(Cl)c4)c3c2)o1 |
| < 4.34 | C[C@]12CCC(=O)C=C1CC[C@@H]1[C@@H]2[C@@H](O)C[C@@]2(C)[C@H]1CC[C@]2(O)C(=O)COP(=O)([O-])[O-].[Na+].[Na+] |
| < 4.34 | O=C(/C=C/c1cccc(F)c1)NC1CC1 |
| < 4.34 | O=C(O)Cc1ccc(-c2ccccc2)cc1 |
| < 4.34 | Cc1cc(C)c(NC(=O)CN(CC(=O)O)CC(=O)O)c(C)c1Br |
| < 4.34 | CC(=O)N[C@@H](CS)C(=O)O |
| < 4.34 | COc1ccccc1OCC(O)COC(N)=O (stereo unspecified) |
| < 4.34 | CCOC(=O)[C@H](CCc1ccccc1)N[C@@H](C)C(=O)N1CCC[C@H]1C(=O)O |
| < 4.34 | O[C@@H]([C@@H]1O\C(=C/[C@H](NC(N)=N)[C@H]1NC(C)=O)C(O)=O)[C@H](O)CO |
| < 4.34 | O=C(O)CCC(=O)O |
| < 4.34 | O[C@]([C@H]3CN(CCC3)CC/C=C(C2=C(C)C=CS2)/C1=C(C)C=CS1)=O.Cl |
| < 4.34 | Cc1ccc2nc(N)[nH]c(=O)c2c1Sc1ccncc1.Cl.Cl |
| < 4.34 | NC(=O)OCC(O)COc1ccc(Cl)cc1 (stereo unspecified) |
| < 4.34 | CCNC(=O)/C=C/c1cccc(Br)c1 |
| < 4.34 | COc1ccc(C2CNC(=O)C2)cc1OC1CCCC1 (stereo unspecified) |
